Test results taken from article PMC9481570, “A small molecule antagonist of SMN disrupts the interaction between SMN and RNAP II” (Nature Communications, 2022).
Where “and” joins values, the source holds several entries; their conditions need not be identical. Identical values can stand only once.

Assays:
Assay in all cases: Affinity-purification and mass spectrometry (AP-MS) chemical proteomics, all proteins;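 for Difference: 200 µM free competitor with 20 µM biotin probe overnight in lysate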
Format in all cases: binding
[1] = target: T1, proteins displaced from immobilized biotin-Cmpd 1 pulldowns (U2OS cell lysate) (Homo sapiens, UniProt P09211); settings: GN=GSTP1 (P09211)
T1 construct: endogenous in cells; host or cells: U2OS
T1 sequence (P09211 whole entry): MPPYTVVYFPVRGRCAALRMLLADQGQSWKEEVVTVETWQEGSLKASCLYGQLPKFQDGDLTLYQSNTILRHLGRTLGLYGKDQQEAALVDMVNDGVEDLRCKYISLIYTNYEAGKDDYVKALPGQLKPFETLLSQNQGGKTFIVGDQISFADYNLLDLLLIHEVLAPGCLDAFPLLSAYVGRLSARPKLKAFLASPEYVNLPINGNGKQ
Experimental: (§1) The samples for AP-MS were prepared following pulldown procedure as previously described with minor modifications. Briefly, U2OS cells were lysed in RIPA buffer and the cell lysate was equally divided into two groups: (1) DMSO group (control group): the cell lysate was incubated with 20 μM biotin-labeled compound 1; (2) Cpmd 1 group (sample group): the cell lysate was incubated with 20 μM biotin-labeled compound 1 and 200 μM free compound 1. Each group contains three biological replicates. They were incubated overnight at 4 °C, then 30 μL streptavidin beads (Thermo Fisher, 20353) was added and incubated at 4 °C for 1 h. The beads were then washed with RIPA buffer for 3 times, 10 min/time.
(§2) Beads were rinsed twice with 50 mM TEAB, pH 7.55, before eluting proteins with 25 μL of 5% SDS, 50 mM TEAB, pH 7.55. The sample was then centrifuged at 17,000 × g for 10 min to remove any debris. Proteins were reduced with 20 mM TCEP (Thermo Fisher, 77720) and incubated at 65 °C for 30 min. The sample was cooled to room temperature and 1 μL of 0.5 M iodoacetamide acid was added and allowed to react for 20 min in dark. Phosphoric acid (12%, 2.75 μL) was added to the protein solution, followed by adding 165 μL of binding buffer (90% methanol, 100 mM TEAB, pH 7.1). The resulting solution was added to S-Trap spin column (protifi.com) and passed through the column using a bench top centrifuge (30 s spin at 4000 × g). The spin column was washed with 400 μL of binding buffer and centrifuged. This step was repeated two more times. Then trypsin was added to the protein mixture at a mass ratio of 1:25 in 50 mM TEAB, pH 8.0, and the sample was incubated at 37 °C for 4 h. Peptides were eluted with 80 μL of 50 mM TEAB, followed by 80 μL of 0.2% formic acid, and finally 80 μL of 50% acetonitrile, 0.2% formic acid. The combined peptide solution was then dried in a speed vac and resuspended in 2% acetonitrile, 0.1% formic acid, 97.9% water and placed in an autosampler vial.
(§3) Samples were analyzed by nanoLC-MS/MS (nanoRSLC, Thermo Fisher) using an Aurora series (Ion Opticks) reversed phase HPLC column (25 cm length × 75 µm inner diameter) and directly injected to an Orbitrap Eclipse (Thermo Fisher) using a 120 min gradient (mobile phase A = 0.1% formic acid, mobile phase B = 99.9% acetonitrile with 0.1% formic acid; hold 2% B for 5 min, 2–6% B in 0.1 min, 6–25% in 100 min, 25–50% in 15 min) at a flow rate of 350 nL/min. Eluted peptide ions were analyzed using a data-dependent acquisition (DDA) method with resolution settings of 120,000 and 15,000 (at m/z 200) for MS1 and MS2 scans, respectively. DDA-selected peptides were fragmented using stepped high energy collisional dissociation (27, 32, and 37%).
(§4) The data of AP-MS were analyzed as a previously described method with minor modifications. Briefly, the raw MS files were searched with MaxQuant software (version 1.6.1.1, www.maxquant.org)[56] against the UniProt human protein database (www.uniprot.org) concatenated with common contaminants and the decoy database. The mass tolerance for precursor ions was set to 20 ppm and 4.5 ppm for the first and main search, respectively. The cysteine carbamidomethylation was set as fixed modification and methionine oxidation and N-terminal acetylation as variable modifications. Enzyme specificity was set to trypsin and a maximum missed cleavage was set as 2. The 1% false discovery rate (FDR) at both peptide and protein levels was applied for the analysis. Relative protein quantification was based on the label-free quantification incorporated in the MaxQuant software. The iBAQ intensity of proteins was obtained for the control and experimental samples. The missing iBAQ intensity was replaced by a random number, which was calculated from a normal distribution with a width of 0.3 and a downshift of 1.8 defined by Perseus software (version 1.6.5.0). The P-value was calculated by performing two-sample Student’s t-test. […]

[2] = target: T2, proteins displaced from immobilized biotin-Cmpd 1 pulldowns (U2OS cell lysate) (Homo sapiens, UniProt P13639); settings: GN=EEF2 (P13639)
T2 construct: endogenous in cells; host or cells: U2OS
Experimental: as §1, §2, §3, §4

[3] = target: T3, proteins displaced from immobilized biotin-Cmpd 1 pulldowns (U2OS cell lysate) (Homo sapiens, UniProt P16615); settings: GN=ATP2A2 (P16615)
T3 construct: endogenous in cells; host or cells: U2OS
T3 sequence (P16615 whole entry): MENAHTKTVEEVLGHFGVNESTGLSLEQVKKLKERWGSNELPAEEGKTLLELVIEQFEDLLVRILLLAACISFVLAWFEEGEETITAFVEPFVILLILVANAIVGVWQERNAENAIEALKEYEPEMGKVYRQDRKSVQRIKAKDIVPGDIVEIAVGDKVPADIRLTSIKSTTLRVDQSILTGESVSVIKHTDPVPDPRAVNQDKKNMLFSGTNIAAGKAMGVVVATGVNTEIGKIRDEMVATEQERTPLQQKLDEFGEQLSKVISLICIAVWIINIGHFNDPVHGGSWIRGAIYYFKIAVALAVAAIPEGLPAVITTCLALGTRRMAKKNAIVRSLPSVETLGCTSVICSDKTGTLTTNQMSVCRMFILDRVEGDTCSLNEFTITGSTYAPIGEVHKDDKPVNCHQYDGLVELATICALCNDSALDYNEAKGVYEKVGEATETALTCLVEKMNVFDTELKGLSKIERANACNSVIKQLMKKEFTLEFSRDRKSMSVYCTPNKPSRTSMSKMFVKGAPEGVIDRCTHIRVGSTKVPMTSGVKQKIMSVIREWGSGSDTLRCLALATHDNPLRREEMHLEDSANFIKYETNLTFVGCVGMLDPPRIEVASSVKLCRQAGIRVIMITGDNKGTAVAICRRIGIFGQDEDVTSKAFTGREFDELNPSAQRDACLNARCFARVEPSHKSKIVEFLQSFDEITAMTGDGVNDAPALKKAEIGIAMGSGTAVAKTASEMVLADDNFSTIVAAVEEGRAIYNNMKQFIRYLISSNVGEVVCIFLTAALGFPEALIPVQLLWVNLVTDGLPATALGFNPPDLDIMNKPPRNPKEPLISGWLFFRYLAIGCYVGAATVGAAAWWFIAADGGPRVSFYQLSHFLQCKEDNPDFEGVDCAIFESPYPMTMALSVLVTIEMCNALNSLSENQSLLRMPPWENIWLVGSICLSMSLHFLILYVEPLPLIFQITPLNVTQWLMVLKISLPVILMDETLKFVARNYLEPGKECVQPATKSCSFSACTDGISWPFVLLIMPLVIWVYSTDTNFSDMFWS
Experimental: as §1, §2, §3, §4

[4] = target: T4, proteins displaced from immobilized biotin-Cmpd 1 pulldowns (U2OS cell lysate) (Homo sapiens, UniProt P50991); settings: GN=CCT4 (P50991)
T4 construct: endogenous in cells; host or cells: U2OS
T4 sequence (P50991 whole entry): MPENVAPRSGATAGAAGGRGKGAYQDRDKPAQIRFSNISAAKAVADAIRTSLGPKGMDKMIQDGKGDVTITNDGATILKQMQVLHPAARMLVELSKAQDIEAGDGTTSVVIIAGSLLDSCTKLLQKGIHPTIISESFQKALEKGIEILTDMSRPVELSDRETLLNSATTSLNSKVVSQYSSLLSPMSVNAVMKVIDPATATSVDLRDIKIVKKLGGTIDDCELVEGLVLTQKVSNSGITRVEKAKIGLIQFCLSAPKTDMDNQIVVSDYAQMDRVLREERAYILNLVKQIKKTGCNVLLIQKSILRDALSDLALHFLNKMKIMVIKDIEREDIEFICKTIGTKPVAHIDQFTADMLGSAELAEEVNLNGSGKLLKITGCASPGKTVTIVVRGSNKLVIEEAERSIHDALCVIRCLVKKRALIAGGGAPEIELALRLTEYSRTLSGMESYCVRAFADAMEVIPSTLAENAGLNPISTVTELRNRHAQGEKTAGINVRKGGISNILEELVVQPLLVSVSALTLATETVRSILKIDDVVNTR
Experimental: as §1, §2, §3, §4

[5] = target: T5, proteins displaced from immobilized biotin-Cmpd 1 pulldowns (U2OS cell lysate) (Homo sapiens, UniProt P56537); settings: GN=EIF6 (P56537)
T5 construct: endogenous in cells; host or cells: U2OS
Experimental: as §1, §2, §3, §4

[6] = target: T6, proteins displaced from immobilized biotin-Cmpd 1 pulldowns (U2OS cell lysate) (Homo sapiens, UniProt P57678); settings: GN=GEMIN4 (P57678)
T6 construct: endogenous in cells; host or cells: U2OS
T6 sequence (P57678 whole entry): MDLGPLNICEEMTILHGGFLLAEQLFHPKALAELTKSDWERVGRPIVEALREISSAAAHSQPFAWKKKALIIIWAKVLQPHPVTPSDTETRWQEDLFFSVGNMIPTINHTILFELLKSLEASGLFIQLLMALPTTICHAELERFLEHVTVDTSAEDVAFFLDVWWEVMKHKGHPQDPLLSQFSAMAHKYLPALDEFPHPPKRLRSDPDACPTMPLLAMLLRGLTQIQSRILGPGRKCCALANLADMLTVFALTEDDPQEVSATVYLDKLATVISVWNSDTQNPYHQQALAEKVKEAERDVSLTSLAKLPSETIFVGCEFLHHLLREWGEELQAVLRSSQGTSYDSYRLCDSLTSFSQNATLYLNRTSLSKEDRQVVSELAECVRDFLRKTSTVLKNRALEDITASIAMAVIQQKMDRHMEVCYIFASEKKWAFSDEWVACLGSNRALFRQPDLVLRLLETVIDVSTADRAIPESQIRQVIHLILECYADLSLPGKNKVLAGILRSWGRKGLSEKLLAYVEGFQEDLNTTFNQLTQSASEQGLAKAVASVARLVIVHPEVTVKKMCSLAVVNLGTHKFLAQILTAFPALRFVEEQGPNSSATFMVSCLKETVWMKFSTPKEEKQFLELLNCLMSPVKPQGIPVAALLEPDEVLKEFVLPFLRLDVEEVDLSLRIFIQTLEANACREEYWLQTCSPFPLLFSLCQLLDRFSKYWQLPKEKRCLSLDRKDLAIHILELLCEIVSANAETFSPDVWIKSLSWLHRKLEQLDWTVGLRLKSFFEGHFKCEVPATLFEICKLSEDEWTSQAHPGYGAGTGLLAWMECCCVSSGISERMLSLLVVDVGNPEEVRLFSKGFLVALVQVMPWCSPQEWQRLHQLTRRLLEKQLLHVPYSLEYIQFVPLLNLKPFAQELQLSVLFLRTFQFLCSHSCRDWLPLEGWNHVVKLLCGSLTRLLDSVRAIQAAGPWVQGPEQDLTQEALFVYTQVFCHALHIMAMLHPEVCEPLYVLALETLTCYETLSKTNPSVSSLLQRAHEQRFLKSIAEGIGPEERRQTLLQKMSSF
Experimental: as §1, §2, §3, §4

[7] = target: T7, proteins displaced from immobilized biotin-Cmpd 1 pulldowns (U2OS cell lysate) (Homo sapiens, UniProt Q01105); settings: GN=SET (Q01105)
T7 construct: endogenous in cells; host or cells: U2OS
T7 sequence (Q01105 whole entry): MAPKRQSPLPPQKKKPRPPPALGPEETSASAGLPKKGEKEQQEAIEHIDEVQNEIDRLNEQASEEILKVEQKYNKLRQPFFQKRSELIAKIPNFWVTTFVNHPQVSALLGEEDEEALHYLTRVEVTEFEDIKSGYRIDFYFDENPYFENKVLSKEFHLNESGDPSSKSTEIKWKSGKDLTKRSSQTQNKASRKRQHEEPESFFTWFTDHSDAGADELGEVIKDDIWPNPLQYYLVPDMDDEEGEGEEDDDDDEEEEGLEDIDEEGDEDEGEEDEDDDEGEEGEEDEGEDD
Experimental: as §1, §2, §3, §4

[8] = target: T8, proteins displaced from immobilized biotin-Cmpd 1 pulldowns (U2OS cell lysate) (Homo sapiens, UniProt Q14151); settings: GN=SAFB2 (Q14151)
T8 construct: endogenous in cells; host or cells: U2OS
T8 sequence (Q14151 whole entry): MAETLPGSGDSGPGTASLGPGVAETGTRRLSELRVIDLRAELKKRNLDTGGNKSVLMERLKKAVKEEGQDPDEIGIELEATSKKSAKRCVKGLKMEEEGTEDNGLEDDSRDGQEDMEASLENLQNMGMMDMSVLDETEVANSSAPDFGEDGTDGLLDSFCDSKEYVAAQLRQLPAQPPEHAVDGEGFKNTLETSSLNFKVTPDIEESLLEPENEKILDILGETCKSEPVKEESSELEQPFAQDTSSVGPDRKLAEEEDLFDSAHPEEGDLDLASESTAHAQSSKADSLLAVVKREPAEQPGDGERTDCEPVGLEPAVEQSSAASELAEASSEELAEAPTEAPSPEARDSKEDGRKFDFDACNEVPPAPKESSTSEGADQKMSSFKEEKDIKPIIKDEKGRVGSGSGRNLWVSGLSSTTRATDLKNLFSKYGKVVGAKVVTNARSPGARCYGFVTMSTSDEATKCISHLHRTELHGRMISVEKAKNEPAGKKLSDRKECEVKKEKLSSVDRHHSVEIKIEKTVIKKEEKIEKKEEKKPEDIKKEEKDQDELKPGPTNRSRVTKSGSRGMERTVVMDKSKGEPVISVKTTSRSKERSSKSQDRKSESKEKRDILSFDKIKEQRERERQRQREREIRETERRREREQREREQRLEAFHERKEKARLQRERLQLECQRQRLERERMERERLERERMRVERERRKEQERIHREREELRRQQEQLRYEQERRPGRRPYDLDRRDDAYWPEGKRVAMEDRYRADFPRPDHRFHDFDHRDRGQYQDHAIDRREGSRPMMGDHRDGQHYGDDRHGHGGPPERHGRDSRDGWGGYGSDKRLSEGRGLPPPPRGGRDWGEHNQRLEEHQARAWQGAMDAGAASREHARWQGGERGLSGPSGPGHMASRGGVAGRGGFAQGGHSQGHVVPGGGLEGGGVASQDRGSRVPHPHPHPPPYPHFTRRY
Experimental: as §1, §2, §3, §4

[9] = target: T9, proteins displaced from immobilized biotin-Cmpd 1 pulldowns (U2OS cell lysate) (Homo sapiens, UniProt Q9BUF5); settings: GN=TUBB6 (Q9BUF5)
T9 construct: endogenous in cells; host or cells: U2OS
T9 sequence (Q9BUF5 whole entry): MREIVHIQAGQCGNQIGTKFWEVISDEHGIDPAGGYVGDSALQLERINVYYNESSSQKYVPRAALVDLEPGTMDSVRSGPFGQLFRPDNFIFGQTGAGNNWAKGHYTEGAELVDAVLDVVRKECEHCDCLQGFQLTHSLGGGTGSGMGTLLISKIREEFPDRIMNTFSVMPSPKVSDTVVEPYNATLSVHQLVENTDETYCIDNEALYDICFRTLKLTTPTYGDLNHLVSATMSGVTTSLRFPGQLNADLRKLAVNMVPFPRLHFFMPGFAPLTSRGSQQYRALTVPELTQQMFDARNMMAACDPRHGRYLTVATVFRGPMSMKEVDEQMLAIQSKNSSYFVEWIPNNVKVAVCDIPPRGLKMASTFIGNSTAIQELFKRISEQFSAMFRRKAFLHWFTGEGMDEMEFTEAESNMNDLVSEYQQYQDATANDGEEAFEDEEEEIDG
Experimental: as §1, §2, §3, §4

[10] = target: T10, proteins displaced from immobilized biotin-Cmpd 1 pulldowns (U2OS cell lysate) (Homo sapiens, UniProt Q9NR12); settings: GN=PDLIM7 (Q9NR12)
T10 construct: endogenous in cells; host or cells: U2OS
T10 sequence (Q9NR12 whole entry): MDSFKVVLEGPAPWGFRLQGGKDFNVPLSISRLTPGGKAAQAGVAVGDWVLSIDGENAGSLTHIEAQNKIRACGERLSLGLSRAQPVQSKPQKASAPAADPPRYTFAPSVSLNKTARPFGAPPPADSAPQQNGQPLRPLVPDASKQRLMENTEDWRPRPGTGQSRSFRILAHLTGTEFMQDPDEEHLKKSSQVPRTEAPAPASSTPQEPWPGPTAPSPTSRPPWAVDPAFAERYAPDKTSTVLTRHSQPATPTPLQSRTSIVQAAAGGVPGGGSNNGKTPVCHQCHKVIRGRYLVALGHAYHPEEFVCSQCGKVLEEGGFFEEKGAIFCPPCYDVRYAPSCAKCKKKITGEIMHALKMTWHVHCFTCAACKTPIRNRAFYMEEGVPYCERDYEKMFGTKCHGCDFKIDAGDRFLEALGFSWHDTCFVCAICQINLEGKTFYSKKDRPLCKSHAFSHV
Experimental: as §1, §2, §3, §4

With `Cn1c2c(c(=N)c3c1CCC3)CCC2` [Compound 1, 4-methyl-2,3,4,5,6,7-hexahydrodicyclopenta[b,e]pyridin-8(1H)-imine] as the compound, how does the Difference ([1]; Cmpd minus DMSO, -LOG(P-value) 0.706691) read?
The Difference was -2.301.

And the “iBAQ Cmpd” value ([1]; replicates 1-3)?
The value was 19.2888 and 14.7277 and 18.6327.

What about the Difference ([2]; Cmpd minus DMSO, -LOG(P-value) 1.71036) of the same compound?
The Difference was -0.7791.

What about the “iBAQ Cmpd” value ([2]; replicates 1-3) of the same compound?
The value was 17.772 and 17.7165 and 17.939.

What about the Difference ([3]; Cmpd minus DMSO, -LOG(P-value) 0.792118) of the same compound?
Its Difference is 1.325.

And the “iBAQ Cmpd” value ([3]; replicates 1-3)?
Its value is 18.9227 and 18.7034 and 17.2331.

And the Difference ([4]; Cmpd minus DMSO, -LOG(P-value) 0.713793)?
The Difference was 0.7229.

What about the “iBAQ Cmpd” value ([4]; replicates 1-3) of the same compound?
Its value is 21.0359 and 20.6692 and 20.6092.

And the Difference ([5]; Cmpd minus DMSO, -LOG(P-value) 0.868477)?
Its Difference is -1.064.

What about the “iBAQ Cmpd” value ([5]; replicates 1-3) of the same compound?
Its value is 20.5029 and 19.445 and 19.2006.

And the Difference ([6]; Cmpd minus DMSO, -LOG(P-value) 1.57311)?
The Difference was -2.921.

And the “iBAQ Cmpd” value ([6]; replicates 1-3)?
The value was 14.9119 and 15.2101 and 14.5309.

And the Difference ([7]; Cmpd minus DMSO, -LOG(P-value) 0.992199)?
The Difference was 4.792.

And the “iBAQ Cmpd” value ([7]; replicates 1-3)?
Its value is 21.3063 and 22.1737 and 20.6451.

What about the Difference ([8]; Cmpd minus DMSO, -LOG(P-value) 1.24711) of the same compound?
The Difference was 1.435.

And the “iBAQ Cmpd” value ([8]; replicates 1-3)?
The value was 18.2139 and 16.8013 and 17.9077.

What about the Difference ([9]; Cmpd minus DMSO, -LOG(P-value) 2.60513) of the same compound?
Its Difference is 3.82.

What about the “iBAQ Cmpd” value ([9]; replicates 1-3) of the same compound?
The value was 19.1705 and 17.8309 and 17.4529.

What about the Difference ([10]; Cmpd minus DMSO, -LOG(P-value) 0.715156) of the same compound?
The Difference was 2.317.

And the “iBAQ Cmpd” value ([10]; replicates 1-3)?
Its value is 18.0201 and 21.1113 and 16.886.
